30 molecules from patent US9167821B2 (priority 2009, dated 2015) can be followed below.

Where a name gives a salt, the structure may show the parent alone.

The first data set can be described thus: physchem. The conditions noted are these: pH 2.3.
Text: The determination is effected in the acidic range at pH 2.3 using 0.1% aqueous phosphoric acid and acetonitrile as eluents; linear gradient from 10% acetonitrile to 95% acetonitrile. • ^[b] The LC-MS determination in the acidic range is effected at pH 2.7 using 0.1% aqueous formic acid and acetonitrile (contains 0.1% formic acid) as eluents; linear gradient from 10% acetonitrile to 95% acetonitrile. • ^[c] The LC-MS determination in the neutral range is effected at pH 7.8 using 0.001 molar aqueous ammonium hydrogencarbonate solution and acetonitrile as eluents; linear gradient from 10% acetonitrile to 95% acetonitrile.
The calibration is effected with unbranched alkan-2-ones (having 3 to 16 carbon atoms) with known log P values (determination of the log P values using the retention times by linear interpolation between two successive alkanones).
Broadly, the chromatographic logP is lipophilicity estimated from chromatographic retention. `O=C(Oc1ccccc1C1CC(c2csc(C3CCN(C(=O)Cn4nc(C(F)F)cc4C(F)F)CC3)n2)=NO1)C1CCCCC1` (stereo not shown) [I-32, 2-{3-[2-(1-{[3,5-bis(difluoromethyl)-1H-pyrazol-1-yl]acetyl}piperidin-4-yl)-1,3-thiazol-4-yl]-4,5-dihydro-1,2-oxazol-5-yl}phenyl cyclohexanecarboxylate] yielded a chromatographic logP of 4.27.

Staying with this data set, now noted: pH 2.7, log P (HCOOH).
`O=C(Cn1nc(C(F)F)cc1C(F)F)N1CCC(c2nc(C3=NOC(c4c(O)cccc4Cl)C3)cs2)CC1` (stereo not shown) [I-54, 2-[3,5-Bis(difluoromethyl)-1H-pyrazol-1-yl]-1-(4-{4-[5-(2-chloro-6-hydroxyphenyl)-4,5-dihydro-1,2-oxazol-3-yl]-1,3-thiazol-2-yl}piperidin-1-yl)ethanone] returned a chromatographic logP of 2.94.

Regarding `CC(C)(C)OC(=O)N1CCC(F)(c2nc(C=O)cs2)CC1` [VI-1, tert-Butyl 4-fluoro-4-(4-formyl-1,3-thiazol-2-yl)piperidine-1-carboxylate], the chromatographic logP was 2.8.

In the case of `O=Cc1csc(C2CCN(C(=O)Cn3nc(C(F)F)cc3C(F)F)CC2)n1` [VI-2, 2-(1-{[3,5-Bis(difluoromethyl)-1H-pyrazol-1-yl]acetyl}piperidin-4-yl)-1,3-thiazole-4-carbaldehyde], the chromatographic logP is 1.93.

For the molecule `CC(C)(C)OC(=O)N1CCC(F)(c2nc(C3=NOC(c4ccccc4)C3)cs2)CC1` (stereo not shown) [X-a-1, tert-Butyl 4-fluoro-4-[4-(5-phenyl-4,5-dihydro-1,2-oxazol-3-yl)-1,3-thiazol-2-yl]piperidine-1-carboxylate], the chromatographic logP is 4.28.

On to `CC(C)(C)OC(=O)N1CCC(c2nc(C3=NOC(c4ccccc4C=O)C3)cs2)CC1` (stereo not shown) [X-a-3, tert-Butyl 4-{4-[5-(2-formylphenyl)-4,5-dihydro-1,2-oxazol-3-yl]-1,3-thiazol-2-yl}piperidine-1-carboxylate], for which the chromatographic logP was 3.76.

`CC(C)(C)OC(=O)N1CCC(c2nc(C3=NOC(c4ccccc4NS(C)(=O)=O)C3)cs2)CC1` (stereo not shown) [X-a-4, tert-Butyl 4-[4-(5-{2-[(methylsulphonyl)amino]phenyl}-4,5-dihydro-1,2-oxazol-3-yl)-1,3-thiazol-2-yl]piperidine-1-carboxylate] showed a chromatographic logP of 3.

`COC(=O)c1ccccc1C1CC(c2csc(C3CCN(C(=O)OC(C)(C)C)CC3)n2)=NO1` (stereo not shown) [X-a-8, tert-butyl 4-(4-{5-[2-(methoxycarbonyl)phenyl]-4,5-dihydro-1,2-oxazol-3-yl}-1,3-thiazol-2-yl)piperidine-1-carboxylate] came in with a chromatographic logP of 4.14.

For the molecule `CC(C)(C)OC(=O)N1CCC(c2nc(C3=NOC(c4ccccc4C(=O)O)C3)cs2)CC1` (stereo not shown) [X-a-9, 2-(3-{2-[1-(tert-butoxycarbonyl)piperidin-4-yl]-1,3-thiazol-4-yl}-4,5-dihydro-1,2-oxazol-5-yl)benzoic acid], the chromatographic logP came to 3.18.

The molecule `CC(C)(C)OC(=O)N1CCC(c2nc(C3=NOC(c4c(F)cccc4C=O)C3)cs2)CC1` (stereo not shown) [X-a-13, tert-Butyl 4-{4-[5-(2-fluoro-6-formylphenyl)-4,5-dihydro-1,2-oxazol-3-yl]-1,3-thiazol-2-yl}piperidine-1-carboxylate] came in with a chromatographic logP of 3.62.

For `CC(C)(C)OC(=O)N1CCC(c2nc(-c3cc(-c4ccccc4C=O)on3)cs2)CC1` [X-b-1, tert-butyl 4-{4-[5-(2-formylphenyl)-1,2-oxazol-3-yl]-1,3-thiazol-2-yl}piperidine-1-carboxylate], the chromatographic logP came to 4.1.

As to `FC1(c2nc(C3=NOC(c4ccccc4)C3)cs2)CCNCC1` (stereo not shown) [XII-1, 4-fluoro-4-[4-(5-phenyl-4,5-dihydro-1,2-oxazol-3-yl)-1,3-thiazol-2-yl]piperidinium chloride], the chromatographic logP was determined as 1.17.

In the case of `CC(=O)c1ccccc1C1CC(c2csc(C3CCNCC3)n2)=NO1` (stereo not shown) [XII-2, 1-(2-{3-[2-(Piperidin-4-yl)-1,3-thiazol-4-yl]-4,5-dihydro-1,2-oxazol-5-yl}phenyl)ethanone hydrochloride], the chromatographic logP is 0.96.

In turn, `O=Cc1ccccc1C1CC(c2csc(C3CCNCC3)n2)=NO1` (stereo not shown) [XII-3, 2-{3-[2-(Piperidin-4-yl)-1,3-thiazol-4-yl]-4,5-dihydro-1,2-oxazol-5-yl}benzaldehyde hydrochloride] yielded a chromatographic logP of 0.76.

Take `CS(=O)(=O)Nc1ccccc1C1CC(c2csc(C3CCNCC3)n2)=NO1` (stereo not shown) [XII-4, 4-[4-(5-{2-[(Methylsulphonyl)amino]phenyl}-4,5-dihydro-1,2-oxazol-3-yl)-1,3-thiazol-2-yl]piperidinium chloride]: the chromatographic logP came to 0.72.

Still in this data set, the particulars now being: pH 2.7, log P (pH2.7).
The molecule `CC(C)(C)OC(=O)N1CCC(c2nc(C3=NOC(c4ccccc4O)C3)cs2)CC1` (stereo not shown) [X-a-5, tert-Butyl 4-{4-[5-(2-hydroxyphenyl)-4,5-dihydro-1,2-oxazol-3-yl]-1,3-thiazol-2-yl}piperidine-1-carboxylate] gave a chromatographic logP of 3.22.

Consider `CC(C)(C)OC(=O)N1CCC(c2nc(C3=NOC(c4ccccc4[N+](=O)[O-])C3)cs2)CC1` (stereo not shown) [X-a-6, tert-Butyl 4-{4-[5-(2-nitrophenyl)-4,5-dihydro-1,2-oxazol-3-yl]-1,3-thiazol-2-yl}piperidine-1-carboxylate], for which the chromatographic logP came out at 4.01.

Take `CC(C)(C)OC(=O)N1CCC(c2nc(C3=NOC(c4ccccc4OCC4CCCCC4)C3)cs2)CC1` (stereo not shown) [X-a-7, tert-butyl 4-(4-{5-[2-(cyclohexylmethoxy)phenyl]-4,5-dihydro-1,2-oxazol-3-yl}-1,3-thiazol-2-yl)piperidine-1-carboxylate]: the chromatographic logP worked out at 6.3.

`Oc1ccccc1C1CC(c2csc(C3CCNCC3)n2)=NO1` (stereo not shown) [XII-5, 4-{4-[5-(2-Hydroxyphenyl)-4,5-dihydro-1,2-oxazol-3-yl]-1,3-thiazol-2-yl}piperidinium chloride] returned a chromatographic logP of 0.69.

`O=[N+]([O-])c1ccccc1C1CC(c2csc(C3CCNCC3)n2)=NO1` (stereo not shown) [XII-6, 4-{4-[5-(2-Nitrophenyl)-4,5-dihydro-1,2-oxazol-3-yl]-1,3-thiazol-2-yl}piperidinium chloride] gave a chromatographic logP of 1.09.

With `c1ccc(C2CC(c3csc(C4CCNCC4)n3)=NO2)c(OCC2CCCCC2)c1` (stereo not shown) [XII-7, 4-(4-{5-[2-(Cyclohexylmethoxy)phenyl]-4,5-dihydro-1,2-oxazol-3-yl}-1,3-thiazol-2-yl)piperidinium chloride], the chromatographic logP came out at 1.9.

The same data set, now with this note: pH 2.7, logp [b].
`CS(=O)(=O)Nc1ccccc1C1CC(c2csc(C3CCN(C(=O)Cn4nc(C(F)F)cc4C(F)F)CC3)n2)=NO1` (stereo not shown) [I-37, N-(2-{3-[2-(1-{[3,5-Bis(difluoromethyl)-1H-pyrazol-1-yl]acetyl}piperidin-4-yl)-1,3-thiazol-4-yl]-4,5-dihydro-1,2-oxazol-5-yl}phenyl)methanesulphonamide] yielded a chromatographic logP of 2.51.

On to `C#Cc1ccccc1C1CC(c2csc(C3CCN(C(=O)Cn4nc(C(F)F)cc4C(F)F)CC3)n2)=NO1` (stereo not shown) [I-38, 2-[3,5-Bis(difluoromethyl)-1H-pyrazol-1-yl]-1-(4-{4-[5-(2-ethynylphenyl)-4,5-dihydro-1,2-oxazol-3-yl]-1,3-thiazol-2-yl}piperidin-1-yl)ethanone], for which the chromatographic logP turned out to be 3.36.

In turn, `COC(=O)c1ccccc1C1CC(c2csc(C3CCN(C(=O)Cn4nc(C(F)F)cc4C(F)F)CC3)n2)=NO1` (stereo not shown) [I-43, Methyl 2-{3-[2-(1-{[3,5-bis(difluoromethyl)-1H-pyrazol-1-yl]acetyl}piperidin-4-yl)-1,3-thiazol-4-yl]-4,5-dihydro-1,2-oxazol-5-yl}benzoate] had a chromatographic logP of 3.32.

As to `O=C(Cn1nc(C(F)F)cc1C(F)F)N1CCC(c2nc(C3=NOC(c4ccccc4CCl)C3)cs2)CC1` (stereo not shown) [I-44, 2-[3,5-Bis(difluoromethyl)-1H-pyrazol-1-yl]-1-[4-(4-{5-[2-(chloromethyl)phenyl]-4,5-dihydro-1,2-oxazol-3-yl}-1,3-thiazol-2-yl)piperidin-1-yl]ethanone], the chromatographic logP was 3.36.

`O=C(Cn1nc(C(F)F)cc1C(F)F)N1CCC(c2nc(C3=NOC(c4ccccc4CO)C3)cs2)CC1` (stereo not shown) [I-45, 2-[3,5-Bis(difluoromethyl)-1H-pyrazol-1-yl]-1-[4-(4-{5-[2-(hydroxymethyl)phenyl]-4,5-dihydro-1,2-oxazol-3-yl}-1,3-thiazol-2-yl)piperidin-1-yl]ethanone] displayed a chromatographic logP of 2.45.

Turning to `COC(=O)c1ccccc1C1CC(c2nc(C3CCN(C(=O)Cn4nc(C(F)F)cc4C(F)F)CC3)sc2Cl)=NO1` (stereo not shown) [I-46, methyl 2-{3-[2-(1-{[3,5-bis(difluoromethyl)-1H-pyrazol-1-yl]acetyl}piperidin-4-yl)-5-chloro-1,3-thiazol-4-yl]-4,5-dihydro-1,2-oxazol-5-yl}benzoate], the chromatographic logP is 3.98.

Regarding `C#CCOc1cccc(Cl)c1C1CC(c2csc(C3CCN(C(=O)Cn4nc(C(F)F)cc4C(F)F)CC3)n2)=NO1` (stereo not shown) [I-49, 2-[3,5-bis(difluoromethyl)-1H-pyrazol-1-yl]-1-[4-(4-{5-[2-chloro-6-(prop-2-yn-1-yloxy)phenyl]-4,5-dihydro-1,2-oxazol-3-yl}-1,3-thiazol-2-yl)piperidin-1-yl]ethanone], the chromatographic logP was determined as 3.5.

Consider `COCCOc1cccc(Cl)c1C1CC(c2csc(C3CCN(C(=O)Cn4nc(C(F)F)cc4C(F)F)CC3)n2)=NO1` (stereo not shown) [I-50, 2-[3,5-bis(difluoromethyl)-1H-pyrazol-1-yl]-1-[4-(4-{5-[2-chloro-6-(2-methoxyethoxy)phenyl]-4,5-dihydro-1,2-oxazol-3-yl}-1,3-thiazol-2-yl)piperidin-1-yl]ethanone], for which the chromatographic logP turned out to be 3.36.

Regarding `C=CCOc1cccc(Cl)c1C1CC(c2csc(C3CCN(C(=O)Cn4nc(C(F)F)cc4C(F)F)CC3)n2)=NO1` (stereo not shown) [I-51, 1-[4-(4-{5-[2-(Allyloxy)-6-chlorophenyl]-4,5-dihydro-1,2-oxazol-3-yl}-1,3-thiazol-2-yl)piperidin-1-yl]-2-[3,5-bis(difluoromethyl)-1H-pyrazol-1-yl]ethanone], the chromatographic logP was found to be 3.82.

In turn, `O=C(Cn1nc(C(F)F)cc1C(F)F)N1CCC(c2nc(C3=NOC(c4c(O)cccc4Cl)C3)cs2)CC1` (stereo not shown) [I-54, 2-[3,5-Bis(difluoromethyl)-1H-pyrazol-1-yl]-1-(4-{4-[5-(2-chloro-6-hydroxyphenyl)-4,5-dihydro-1,2-oxazol-3-yl]-1,3-thiazol-2-yl}piperidin-1-yl)ethanone] registered a chromatographic logP of 2.94.

Staying with this data set, now noted: pH 7.8, logp [c].
Consider `O=C(Oc1ccccc1C1CC(c2csc(C3CCN(C(=O)Cn4nc(C(F)F)cc4C(F)F)CC3)n2)=NO1)C1CCCCC1` (stereo not shown) [I-32, 2-{3-[2-(1-{[3,5-bis(difluoromethyl)-1H-pyrazol-1-yl]acetyl}piperidin-4-yl)-1,3-thiazol-4-yl]-4,5-dihydro-1,2-oxazol-5-yl}phenyl cyclohexanecarboxylate], for which the chromatographic logP was 4.19.

With `C#CCOc1cccc(Cl)c1C1CC(c2csc(C3CCN(C(=O)Cn4nc(C(F)F)cc4C(F)F)CC3)n2)=NO1` (stereo not shown) [I-49, 2-[3,5-bis(difluoromethyl)-1H-pyrazol-1-yl]-1-[4-(4-{5-[2-chloro-6-(prop-2-yn-1-yloxy)phenyl]-4,5-dihydro-1,2-oxazol-3-yl}-1,3-thiazol-2-yl)piperidin-1-yl]ethanone], the chromatographic logP was 3.34.

Turning to `C=CCOc1cccc(Cl)c1C1CC(c2csc(C3CCN(C(=O)Cn4nc(C(F)F)cc4C(F)F)CC3)n2)=NO1` (stereo not shown) [I-51, 1-[4-(4-{5-[2-(Allyloxy)-6-chlorophenyl]-4,5-dihydro-1,2-oxazol-3-yl}-1,3-thiazol-2-yl)piperidin-1-yl]-2-[3,5-bis(difluoromethyl)-1H-pyrazol-1-yl]ethanone], the chromatographic logP is 3.71.
